Measured values: patent US20110105565A1, “WATER SOLUBLE SMALL MOLECULE INHIBITORS OF THE CYSTIC FIBROSIS TRANSMEMBRANE CONDUCTANCE REGULATOR” (THE REGENTS OF THE UNIVERSITY OF CALIFORNIA, priority 2008, published 2011)
pIC50: −log10 of the molar value. “Also recorded” adds a separate entry of the source.

Legend:
CFTR = target: T1, CFTR (Canis lupus familiaris, UniProt Q5U820); experiment: Short-circuit current measurements in MDCK cells; type: cell-based, Canine; conditions: for CFTR expression, short-circuit current after incubation (in words): 10 μM, 1 or 48 hour incubation, washout 1 hour; for pIC50: after CFTR stimulation by forskolin, read-out: IC50, inhibition of short-circuit current in MDCK cells
T1 construct: MDCK cells, which endogenously express CFTR; endogenous in cells; host or cells: MDCK cells
Procedure: CFTR inhibition potency was confirmed in MDCK cells by short-circuit current analysis. Snapwell inserts containing MDCK cells (transepithelial resistance 1000-2000 Ohms) were mounted in a standard Using chamber system. The basolateral membrane was permeabilized with 250 μg/ml amphotericin B. The hemichambers were filled with 5 mL of 65 mM NaCl, 65 mM Na-gluconate, 2.7 mM KCl, 1.5 mM KH2PO4, 1 mM CaCl2, 0.5 mM MgCl2, Na-Hepes and 10 mM glucose (apical), and 130 mM NaCl, 2.7 mM KCl, 1.5 mM KH2PO4, 1 mM CaCl2, 0.5 mM MgCl2, Na-Hepes and 10 mM glucose (basolateral) (pH 7.3). Short-circuit current was recorded continuously using a DVC-1000 voltage clamp (World Precision Instruments, Sarasota Fla.) with Ag/AgCl electrodes and 1 M KCl agar bridges.
In some experiments, MDCK cells in Snapwell inserts were cultured in medium containing 10 μM T08 or G07 for 1 or 48 hours. Compounds were washed out with medium for 1 hour before short-circuit current measurements.

embryonic kidneys = experiment: Embryonic kidney organ culture model (8-Br-cAMP-induced cysts); type: cell-based, mouse; conditions: for cyst formation in embryonic kidneys (in words): 100 μM 8-Br-cAMP, 4 days; for kidney length after 4 days in culture: absence of 8-Br-cAMP
From the text: An embryonic kidney organ culture model was used to further evaluate compounds T08 and G07. Embryonic kidney culture models permit organotypic growth and differentiation of renal tissue in defined media without the confounding effects of circulating hormones and glomerular filtration (see, e.g., Magenheimer et al., J Am Soc Nephrol 17: 3424-37, 2006; and Gupta et al., Kidney Int 63: 365-376, 2003). In addition, the early mouse kidney tubule in this model has an intrinsic capacity to secrete fluid in response to cAMP by a CFTR-dependent mechanism (Magenheimer et al.), allowing the evaluation of CFTR inhibitors in particular.
Mouse embryos were obtained at embryonic day 13.5 (E13.5). Metanephroi were dissected and placed on transparent Falcon […] porous cell culture inserts. To the culture inserts was added DMEM/Ham's F-12 nutrient medium supplemented with 2 mM L-glutamine, 10 mM HEPES, 5 μg/ml insulin, 5 μg/ml transferrin, 2.8 nM selenium, 25 ng/ml prostaglandin E, 32 pg/ml T3, 250 U/ml penicillin and 250 μg/ml streptomycin. Kidneys were maintained in a 37° C. humidified CO2 incubator, and were cultured for 4 days in the absence or presence of 100 μM 8-Br-cAMP. Culture medium containing 100 μM 8-Br-cAMP, with or without CFTR inhibitors, was replaced (in the lower chamber) every 12 hours.
Kidneys were photographed using a Nikon inverted microscope (Nikon TE 2000-S) equipped with 2× objective lens, 520 nm bandpass filter, and high-resolution PixeLINK color CCD camera. […] Cyst sizes in micrographs of metanephroi were determined using MATLAB 7.0 software. A masking procedure was used to highlight all pixels of similar intensity within each cyst. Fractional cyst area was calculated as total cyst area divided by total kidney area. Cysts with diameters >50 μm were included in the analysis. Image acquisition and analysis was done without knowledge of treatment condition.

[1] = system: Pkd1^flox/−; Ksp-Cre mice; experiment: Pkd1flox/-;Ksp-Cre mouse model of autosomal dominant polycystic kidney disease; type: in vivo; conditions: for kidney weight in Pkd1flox/-;Ksp-Cre mice (in words): 3 days treatment, vs vehicle-treated; for total numbers of cysts (of >50 μm diameter) per kidney: H&E sections, control 797±69; for total numbers of cysts (of >50 μm diameter) per kidney / serum creatinine and urea (in words): Pkd1flox/-;Ksp-Cre mice; for serum creatinine and urea (in words): vs vehicle control, age 5 and 9 days
From the text: An in vivo model of kidney disease was employed to further explore the ability of CFTR inhibitors to reduce cyst formation in a vascular, perfused cellular environment. Pkd1^flox/−; Ksp-Cre mice were employed for this model, since these kidney-selective Pkd1 knockout mice manifest a fulminant course, with development of large cysts and renal failure in first 2 weeks of life, and represent a postnatal model of ADPKD. Pkd1 knockout mice normally die within 20 days. The Pkd1^flox/−; Ksp-Cre model is suitable, inter alia, for evaluating the efficacy of CFTR inhibitors on retarding the growth of cysts in the distal segments of the nephron, including medullary thick ascending limbs of the loops of Henle, distal convoluted tubule and collecting ducts.
Pkd1^flox mice and Ksp-Cre transgenic mice in a C57BL/6 background were generated as described (see, e.g., Shibazaki et al., J Am Soc Nephrol 13: 10-11, 2004; and Shao et al., J Am Soc Nephrol 13: 1837-1846, 2002). Ksp-Cre mice express Cre recombinase under the control of the Ksp-cadherin promoter (Shao et al.). Kidney-specific Pdk1 knock-out mice (Pkd1^flox/−; Ksp-Cre mice) were generated by cross-breeding Pkd1^flox/flox mice with Pkd1^+/−:Ksp-Cre mice. Neonatal mice (age 1 day) were genotyped by genomic PCR.
CFTR inhibitors (5-10 mg/kg/day) or saline DMSO vehicle control (0.05 mL/injection) were administrated by subcutaneous injection on the backs of neonatal mice four times a day for 3 or 7 days using a 1 cc insulin syringe, beginning at age 2 days (11 mice per group). Pkd1^flox/+; Ksp-Cre or Pkd1^flox/+ mice from the same litter were used as controls. During the treatment period, control and Pkd1^flox/−; Ksp-Cre mice, with or without CFTR inhibitor treatment, were indistinguishable in their activity and behavior. Body weight was measured at day 5 (3 days after treatment), at which time there was no difference in body weight in any of the mouse groups. Blood and urine samples were collected for measurements of CFTR inhibitor concentration and renal function. Kidneys were removed and weighed, and fixed for histological examination or homogenized for determination of CFTR inhibitor content.
To measure serum creatinine and urea (indicators of renal function), serum was obtained from whole blood by centrifugation at 5000×g for 5 min. Serum creatinine concentration was measured using a colorimetric assay kit (Cayman Chemical, Ann Arbor Mich.) following manufacturer's instructions. Urea concentration was measured using the colorimetric QUANTICHROM Urea Assay Kit (BioAssay Systems, Hayward, Calif.). Creatinine and urea concentrations were determined from optical densities using calibration standards.
For histological examination, kidneys were fixed with Bouin's fixative and embedded in paraffin. Three-μm thick sections were cut serially every 200 μm and stained with hematoxylin and eosin (H&E). Sections were imaged using a LEICA inverted epifluorescence microscope (DM 4000B) equipped with 2.5× objective lens and color CCD camera (Spot, model RT KE; Diagnostic Instruments Inc.). Cyst sizes in micrographs of kidney were determined using MATLAB 7.0 software.

MDCK cells = experiment: MDCK cell apoptosis, in situ cell death detection kit; type: cell-based, Canine; conditions: 10 μM, 72 h
Procedure: Apoptosis was measured using the in situ cell death detection kit (ROCHE Diagnostics, Indianapolis, Ind.). MDCK cells were seeded on 8-chamber polystyrene tissue culture-treated glass slides and incubated with compounds T08 and G07 for 72 h at 5, 10 or 20 μM. The assay was performed according to manufacturer's instructions. Five microscopic fields were analyzed per condition. The apoptosis index was calculated as the percentage of nucleus-stained cells.

T1 sequence (Q5U820 whole entry): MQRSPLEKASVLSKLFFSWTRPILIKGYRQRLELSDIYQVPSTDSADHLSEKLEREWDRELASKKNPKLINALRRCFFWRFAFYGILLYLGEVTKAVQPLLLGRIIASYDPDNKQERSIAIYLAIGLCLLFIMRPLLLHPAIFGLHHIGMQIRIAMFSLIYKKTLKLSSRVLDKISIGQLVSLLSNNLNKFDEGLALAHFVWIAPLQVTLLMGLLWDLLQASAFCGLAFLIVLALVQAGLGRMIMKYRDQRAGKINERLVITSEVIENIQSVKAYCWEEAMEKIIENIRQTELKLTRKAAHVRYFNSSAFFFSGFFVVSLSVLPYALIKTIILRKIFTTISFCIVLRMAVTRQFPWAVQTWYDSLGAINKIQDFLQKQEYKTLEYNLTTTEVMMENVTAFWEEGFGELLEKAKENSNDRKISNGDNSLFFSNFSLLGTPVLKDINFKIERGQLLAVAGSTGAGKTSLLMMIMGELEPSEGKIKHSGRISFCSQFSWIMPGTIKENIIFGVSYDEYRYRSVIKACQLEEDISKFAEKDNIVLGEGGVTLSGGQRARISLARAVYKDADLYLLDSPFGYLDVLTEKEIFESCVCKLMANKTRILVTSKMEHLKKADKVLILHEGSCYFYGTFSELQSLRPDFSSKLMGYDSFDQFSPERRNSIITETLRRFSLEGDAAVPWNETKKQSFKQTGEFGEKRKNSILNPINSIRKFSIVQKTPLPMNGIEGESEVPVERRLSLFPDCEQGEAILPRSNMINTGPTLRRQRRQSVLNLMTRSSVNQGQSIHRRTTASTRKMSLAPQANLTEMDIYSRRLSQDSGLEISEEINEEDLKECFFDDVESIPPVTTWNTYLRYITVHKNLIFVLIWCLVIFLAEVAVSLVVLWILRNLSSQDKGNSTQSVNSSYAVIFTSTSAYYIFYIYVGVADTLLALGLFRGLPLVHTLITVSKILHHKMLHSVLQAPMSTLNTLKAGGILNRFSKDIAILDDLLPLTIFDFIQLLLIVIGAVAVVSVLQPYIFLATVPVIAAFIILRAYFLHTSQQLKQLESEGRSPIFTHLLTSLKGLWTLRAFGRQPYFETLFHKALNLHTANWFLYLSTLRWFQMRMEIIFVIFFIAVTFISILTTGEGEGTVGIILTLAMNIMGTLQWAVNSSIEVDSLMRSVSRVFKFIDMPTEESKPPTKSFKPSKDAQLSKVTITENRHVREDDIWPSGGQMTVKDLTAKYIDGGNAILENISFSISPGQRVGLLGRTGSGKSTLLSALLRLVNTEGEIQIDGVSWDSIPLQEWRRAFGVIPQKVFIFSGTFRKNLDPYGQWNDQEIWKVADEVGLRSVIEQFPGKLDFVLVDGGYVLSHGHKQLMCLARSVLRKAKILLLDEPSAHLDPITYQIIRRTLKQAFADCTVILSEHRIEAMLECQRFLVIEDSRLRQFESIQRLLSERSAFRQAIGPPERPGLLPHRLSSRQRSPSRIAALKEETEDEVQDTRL

| Compound | CFTR expression, short-circuit current after incubation (in words) (CFTR) | cyst formation in embryonic kidneys (in words) (embryonic kidneys; listed as T08) | kidney weight in Pkd1flox/-;Ksp-Cre mice (in words) [1] | total numbers of cysts (of >50 μm diameter) per kidney [1] | serum creatinine and urea (in words) [1] | MDCK cell apoptosis (in words) (MDCK cells) | pIC50 (CFTR) | cyst formation in embryonic kidneys (in words) (embryonic kidneys) | kidney length after 4 days in culture (embryonic kidneys) [mm] |
| --- | --- | --- | --- | --- | --- | --- | --- | --- | --- |
| O=C1/C(=C/c2ccc(-c3nnn[nH]3)cc2)SC(=S)N1c1cccc(C(F)(F)F)c1 [Compound 6, (Z)-5-(4-(1H-tetrazol-5-yl)benzylidene)-2-thioxo-3-(3-(trifluoromethyl)phenyl)thiazolidin-4-one] | did not alter CFTR expression | remarkably reduced cyst formation; also recorded: reduced the number and size of cysts | reduced kidney weight significantly | 457±32 | significantly reduced | – | – | – | – |
| N-2-naphthalenyl-2-hydroxyethyl-[(3,5-dibromo-2,4-dihydroxyphenyl)methylene]phenylglycinehydrazide [Compound G07] | did not alter CFTR expression | – | reduced kidney weight significantly | 316±45 | significantly reduced | did not cause MDCK cell apoptosis | ~6.00 | remarkably reduced cyst formation; also recorded: reduced the number and size of cysts | 7.1±0.4 |
| O=C1/C(=C/c2ccc(-c3nn[nH]n3)cc2)SC(=S)N1c1cccc(C(F)(F)F)c1 [Compound 6, (Z)-5-(4-(1H-tetrazol-5-yl)benzylidene)-2-thioxo-3-(3-(trifluoromethyl)phenyl)thiazolidin-4-one] | – | – | – | – | – | did not cause MDCK cell apoptosis | ~6.00 | – | 7.4±0.5 |
